Among the data in ChEMBL document CHEMBL1133170, “Binding mode of the 4-anilinoquinazoline class of protein kinase inhibitor: X-ray crystallographic studies of 4-anilinoquinazolines bound to cyclin-dependent kinase 2 and p38 kinase” (J Med Chem, 2000) are IC50 values, retold here.

The structures appear in SMILES notation.

Test [1] addresses Cyclin-dependent kinase 2 (Homo sapiens, UniProt P24941). The test is described as follows: Inhibition of Cyclin-dependent kinase 2.
The target of a further test is MAP kinase p38 (Homo sapiens, UniProt O15264+Q15759+Q16539+P53778). The test is described as follows: Inhibition of Mitogen-activated protein kinase p38. Format: protein assay.

With `COc1cc2ncnc(Nc3cccc(Br)c3)c2cc1OC`, the IC50 (as a rule, the concentration at which inhibition is half-maximal) in test [1] came out at 250 µM; against MAP kinase p38, 6.3 µM.
